Values of other authors in patent US20060150828A1, “Dried infant cereal compositions” (Beech-Nut Nutrition Corporation, priority 2005, published 2006).

Details: storage at 37° C., precooked whole wheat flour containing the iron salt

Row | Substance | pentane formation (fat oxidation)
1 | ferrous sulfate | rapidly generated pentane
2 | ferrous gluconate | rapidly generated pentane
